Results reported in publication PMC4382465 (The Journal of antibiotics, 2014).
Values after ≈ are worked out from the molar mass of the structure shown.

What was measured:
[1] = tested on: M. tuberculosis H37Rv INHr; test: MIC, broth dilution; format: cell-based; conditions: Mycobacterium tuberculosis
[2] = tested on: M. tuberculosis H37Rv RFPr; test: MIC, broth dilution; format: cell-based; conditions: Mycobacterium tuberculosis

Row | SMILES | MIC [1] | MIC [2]
1 | COC1C(C(OC2OC(C(=O)NC3CCCCNC3=O)=CC(O)C2O)C(N)=O)OC(n2ccc(=O)[nH]c2=O)C1OC (stereo not drawn) [UT-01320 (3), 6-{Carbamoyl-[5-(2,4-dioxo-3,4-dihydro-2H-pyrimidin-1-yl)-3,4-dimethoxy-tetrahydro-furan-2-yl]-methoxy}-4,5-dihydroxy-5,6-dihydro-4H-pyran-2-carboxylic acid (2-oxo-azepan-3-yl)-amide] | 2.5 µg/mL (≈ 4.28 µM) | 2.45 µg/mL (≈ 4.2 µM)
2 | CO[C@H]1/C=C/O[C@@]2(C)Oc3c(C)c(O)c4c(O)c(c(/C=N/N5CCN(C)CC5)c(O)c4c3C2=O)NC(=O)/C(C)=C\C=C\[C@H](C)[C@H](O)[C@@H](C)[C@@H](O)[C@@H](C)[C@H](OC(C)=O)[C@@H]1C [Rifampicin (RFP), Rifampicin] | – | > 4 µg/mL
